Measured values published in ChEMBL document CHEMBL5154787 (J Med Chem, 2022).

Columns and labels:
[1] = target: AP2-associated protein kinase 1 (Homo sapiens, UniProt Q2M2I8); test: Inhibition of full length human AAK1 expressed in HEK293F cells assessed as suppression of AP2 phosphorylation measured after 3 hrs by Western blot analysis based cellular assay; type: cell-based
Cytochrome P450 3A4 [2] = target: T1, Cytochrome P450 3A4 (Homo sapiens, UniProt P08684); test: Inhibition of CYP3A4 (unknown origin) incubated for 10 mins in presence of NADPH by LC-MS/MS analysis; type: ADME
[3] = Volume of distribution at steady state in rat at 3 mg/kg,po or 2 mg/kg,iv; type: ADME, organism-based; settings: in vivo
[4] = Efflux ratio of permeability in human Caco-2 cells; type: ADME, cell-based
[5] = Half life in rat at 3 mg/kg, po or 2 mg/kg, iv; type: ADME, organism-based; settings: in vivo
[6] = Total body clearance in rat at 3 mg/kg, po or 2 mg/kg, iv; type: ADME, organism-based; settings: in vivo, read-out: CLt/F
[7] = Permeability of compound at pH 5.5 incubated for 4 hrs by PAMPA assay; type: ADME; settings: read-out: permeability
[8] = Permeability across apical to basolateral side in human Caco-2 cells; type: ADME, cell-based; settings: read-out: permeability
[9] = Permeability across basolateral to apical side in human Caco-2 cells; type: ADME, cell-based; settings: read-out: permeability
[10] = Metabolic stability in human liver microsomes assessed as half life incubated at 0.5 uM for 10 mins in presence of NADPH by LC-MS/MS analysis; type: ADME, Microsome
[11] = Metabolic stability in cynomolgus monkey liver microsomes assessed as half life incubated at 0.5 uM for 10 mins in presence of NADPH by LC-MS/MS analysis; type: ADME, Macaca fascicularis, Microsome
[12] = Metabolic stability in dog microsomes assessed as half life incubated at 0.5 uM for 10 mins in presence of NADPH by LC-MS/MS analysis; type: ADME, Canis lupus familiaris, Liver, Microsome
Cytochrome P450 1A2 = target: T2, Cytochrome P450 1A2 (Homo sapiens, UniProt P05177); test: Inhibition of CYP1A2 (unknown origin) incubated for 10 mins in presence of NADPH by LC-MS/MS analysis; type: ADME
T2 sequence (P05177 whole entry): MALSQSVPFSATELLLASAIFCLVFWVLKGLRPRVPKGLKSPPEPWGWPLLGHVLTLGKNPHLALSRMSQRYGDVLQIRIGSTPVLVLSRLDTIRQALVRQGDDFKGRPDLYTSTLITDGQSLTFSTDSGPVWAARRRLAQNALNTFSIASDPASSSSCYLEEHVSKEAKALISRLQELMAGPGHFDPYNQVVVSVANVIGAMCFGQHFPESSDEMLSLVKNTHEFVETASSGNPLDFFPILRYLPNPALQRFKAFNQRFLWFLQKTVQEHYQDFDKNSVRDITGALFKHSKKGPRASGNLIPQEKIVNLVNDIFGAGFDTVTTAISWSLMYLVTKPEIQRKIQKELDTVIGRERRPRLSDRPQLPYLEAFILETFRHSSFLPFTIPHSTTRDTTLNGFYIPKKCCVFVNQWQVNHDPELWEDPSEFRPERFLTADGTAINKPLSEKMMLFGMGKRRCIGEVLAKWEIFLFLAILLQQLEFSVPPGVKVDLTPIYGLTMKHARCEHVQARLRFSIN

Cytochrome P450 2C19 = Cytochrome P450 2C19 (Homo sapiens, UniProt P33261); test: Inhibition of CYP2C19 (unknown origin) incubated for 10 mins in presence of NADPH by LC-MS/MS analysis; type: ADME
Cytochrome P450 2D6 = Cytochrome P450 2D6 (Homo sapiens, UniProt P10635); test: Inhibition of CYP2D6 (unknown origin) incubated for 10 mins in presence of NADPH by LC-MS/MS analysis; type: ADME
Cytochrome P450 3A4 [13] = target: T1, Cytochrome P450 3A4; test: Inhibition of […] (unknown origin) using BFC as substrate incubated for 10 mins in presence of NADPH by LC-MS/MS analysis; type: ADME
[14] = Inhibition of sodium channel voltage-sensing domain (unknown origin); set-up: species or system Homo sapiens
[15] = target: BMP-2-inducible protein kinase (Homo sapiens, UniProt Q9NSY1); test: Inhibition of BIKE (unknown origin)
[16] = target: T3, Cyclin-G-associated kinase (Homo sapiens, UniProt O14976); test: Inhibition of GAK (unknown origin)
T3 sequence (O14976 whole entry): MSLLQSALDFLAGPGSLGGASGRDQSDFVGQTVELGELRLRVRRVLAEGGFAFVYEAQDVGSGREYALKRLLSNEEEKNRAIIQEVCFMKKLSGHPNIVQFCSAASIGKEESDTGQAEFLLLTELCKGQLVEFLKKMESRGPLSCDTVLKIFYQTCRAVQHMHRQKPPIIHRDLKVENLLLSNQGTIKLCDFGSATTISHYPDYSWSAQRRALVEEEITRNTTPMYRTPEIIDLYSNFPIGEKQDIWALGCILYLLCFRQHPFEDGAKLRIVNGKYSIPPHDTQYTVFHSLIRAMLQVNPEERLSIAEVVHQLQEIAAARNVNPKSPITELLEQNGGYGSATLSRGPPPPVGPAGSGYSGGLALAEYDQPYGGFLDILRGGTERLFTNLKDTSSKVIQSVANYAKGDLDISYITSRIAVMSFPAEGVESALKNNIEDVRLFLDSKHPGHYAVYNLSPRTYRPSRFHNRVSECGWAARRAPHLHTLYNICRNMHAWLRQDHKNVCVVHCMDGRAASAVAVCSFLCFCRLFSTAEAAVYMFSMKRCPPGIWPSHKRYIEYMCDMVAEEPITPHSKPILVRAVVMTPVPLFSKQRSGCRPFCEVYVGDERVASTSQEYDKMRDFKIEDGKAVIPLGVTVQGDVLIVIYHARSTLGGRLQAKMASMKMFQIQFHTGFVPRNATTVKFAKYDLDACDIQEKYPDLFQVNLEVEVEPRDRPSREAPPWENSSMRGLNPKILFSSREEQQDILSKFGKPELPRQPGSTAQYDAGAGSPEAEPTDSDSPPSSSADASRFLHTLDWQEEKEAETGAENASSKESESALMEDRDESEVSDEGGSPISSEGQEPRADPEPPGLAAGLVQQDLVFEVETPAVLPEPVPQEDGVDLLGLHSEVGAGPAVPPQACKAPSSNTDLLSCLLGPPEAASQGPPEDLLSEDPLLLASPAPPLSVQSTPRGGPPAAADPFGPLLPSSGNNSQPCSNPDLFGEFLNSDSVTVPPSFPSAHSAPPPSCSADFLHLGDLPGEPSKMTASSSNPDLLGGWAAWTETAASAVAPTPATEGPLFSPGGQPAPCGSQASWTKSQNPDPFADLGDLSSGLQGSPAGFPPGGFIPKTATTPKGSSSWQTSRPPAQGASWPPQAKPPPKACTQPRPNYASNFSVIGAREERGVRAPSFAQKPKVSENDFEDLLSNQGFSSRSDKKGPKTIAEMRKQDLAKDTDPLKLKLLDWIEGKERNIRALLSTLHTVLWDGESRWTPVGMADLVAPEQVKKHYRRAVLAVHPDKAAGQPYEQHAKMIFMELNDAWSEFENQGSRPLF

[17] = target: MAP kinase-interacting serine/threonine-protein kinase 2 (Homo sapiens, UniProt Q9HBH9); test: Inhibition of MNK2 (unknown origin)
Chain of MAP kinase-interacting serine/threonine-protein kinase 2 (Q9HBH9 whole entry): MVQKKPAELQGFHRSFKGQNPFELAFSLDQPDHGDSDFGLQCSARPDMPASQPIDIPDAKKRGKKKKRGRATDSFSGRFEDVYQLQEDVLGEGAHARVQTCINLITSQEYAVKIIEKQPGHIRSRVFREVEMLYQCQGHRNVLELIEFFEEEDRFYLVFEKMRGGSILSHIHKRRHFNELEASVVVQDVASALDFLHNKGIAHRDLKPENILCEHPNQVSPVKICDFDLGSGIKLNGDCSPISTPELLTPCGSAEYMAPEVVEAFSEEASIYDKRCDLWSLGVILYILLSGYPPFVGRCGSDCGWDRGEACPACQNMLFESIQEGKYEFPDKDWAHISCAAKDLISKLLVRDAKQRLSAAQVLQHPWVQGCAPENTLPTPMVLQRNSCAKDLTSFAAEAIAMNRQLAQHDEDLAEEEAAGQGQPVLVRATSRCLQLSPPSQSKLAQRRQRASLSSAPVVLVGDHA

Chain of BMP-2-inducible protein kinase (Q9NSY1 whole entry): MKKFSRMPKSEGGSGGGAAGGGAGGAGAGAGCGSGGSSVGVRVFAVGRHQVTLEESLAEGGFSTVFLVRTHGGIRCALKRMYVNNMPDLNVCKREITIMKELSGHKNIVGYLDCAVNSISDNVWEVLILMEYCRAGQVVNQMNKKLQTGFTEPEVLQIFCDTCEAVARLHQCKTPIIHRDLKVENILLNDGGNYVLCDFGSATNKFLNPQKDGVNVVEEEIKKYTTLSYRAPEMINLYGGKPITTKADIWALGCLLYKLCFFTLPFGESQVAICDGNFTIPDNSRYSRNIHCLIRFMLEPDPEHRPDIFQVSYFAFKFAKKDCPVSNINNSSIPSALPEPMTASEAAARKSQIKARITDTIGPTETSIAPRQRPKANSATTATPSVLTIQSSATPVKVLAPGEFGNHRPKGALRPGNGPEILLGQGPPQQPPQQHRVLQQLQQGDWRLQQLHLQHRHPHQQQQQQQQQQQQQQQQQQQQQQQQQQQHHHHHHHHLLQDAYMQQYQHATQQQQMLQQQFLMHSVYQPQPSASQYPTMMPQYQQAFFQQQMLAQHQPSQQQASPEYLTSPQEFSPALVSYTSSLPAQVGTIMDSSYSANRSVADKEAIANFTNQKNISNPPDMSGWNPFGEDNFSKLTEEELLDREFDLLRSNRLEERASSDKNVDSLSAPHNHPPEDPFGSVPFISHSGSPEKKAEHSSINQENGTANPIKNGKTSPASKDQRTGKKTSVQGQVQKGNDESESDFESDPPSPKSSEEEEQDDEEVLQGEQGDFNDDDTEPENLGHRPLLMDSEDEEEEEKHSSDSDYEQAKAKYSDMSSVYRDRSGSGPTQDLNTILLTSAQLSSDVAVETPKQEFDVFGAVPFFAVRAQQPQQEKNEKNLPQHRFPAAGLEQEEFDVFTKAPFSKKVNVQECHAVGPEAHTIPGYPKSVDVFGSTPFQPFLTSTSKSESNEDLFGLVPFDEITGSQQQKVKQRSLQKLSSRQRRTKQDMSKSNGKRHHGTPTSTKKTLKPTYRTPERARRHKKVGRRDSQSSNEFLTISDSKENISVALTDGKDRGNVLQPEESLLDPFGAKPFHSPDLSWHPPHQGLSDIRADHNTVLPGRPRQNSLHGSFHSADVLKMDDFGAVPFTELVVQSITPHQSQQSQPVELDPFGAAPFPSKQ
Chain of Cytochrome P450 2D6 (P10635 whole entry): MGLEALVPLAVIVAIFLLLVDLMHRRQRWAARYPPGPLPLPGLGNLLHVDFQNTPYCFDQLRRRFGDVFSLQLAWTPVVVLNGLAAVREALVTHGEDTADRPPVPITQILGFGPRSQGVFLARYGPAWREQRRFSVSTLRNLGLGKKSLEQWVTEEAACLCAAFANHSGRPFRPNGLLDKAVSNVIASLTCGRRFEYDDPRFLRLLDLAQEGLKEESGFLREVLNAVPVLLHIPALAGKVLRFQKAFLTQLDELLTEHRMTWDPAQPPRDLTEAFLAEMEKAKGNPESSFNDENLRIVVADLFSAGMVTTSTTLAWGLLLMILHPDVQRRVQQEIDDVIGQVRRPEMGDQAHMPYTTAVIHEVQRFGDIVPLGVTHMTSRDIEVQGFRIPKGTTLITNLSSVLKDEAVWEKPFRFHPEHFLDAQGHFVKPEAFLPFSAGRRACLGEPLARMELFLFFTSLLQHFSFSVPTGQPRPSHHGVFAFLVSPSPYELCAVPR
Chain of AP2-associated protein kinase 1 (Q2M2I8 whole entry): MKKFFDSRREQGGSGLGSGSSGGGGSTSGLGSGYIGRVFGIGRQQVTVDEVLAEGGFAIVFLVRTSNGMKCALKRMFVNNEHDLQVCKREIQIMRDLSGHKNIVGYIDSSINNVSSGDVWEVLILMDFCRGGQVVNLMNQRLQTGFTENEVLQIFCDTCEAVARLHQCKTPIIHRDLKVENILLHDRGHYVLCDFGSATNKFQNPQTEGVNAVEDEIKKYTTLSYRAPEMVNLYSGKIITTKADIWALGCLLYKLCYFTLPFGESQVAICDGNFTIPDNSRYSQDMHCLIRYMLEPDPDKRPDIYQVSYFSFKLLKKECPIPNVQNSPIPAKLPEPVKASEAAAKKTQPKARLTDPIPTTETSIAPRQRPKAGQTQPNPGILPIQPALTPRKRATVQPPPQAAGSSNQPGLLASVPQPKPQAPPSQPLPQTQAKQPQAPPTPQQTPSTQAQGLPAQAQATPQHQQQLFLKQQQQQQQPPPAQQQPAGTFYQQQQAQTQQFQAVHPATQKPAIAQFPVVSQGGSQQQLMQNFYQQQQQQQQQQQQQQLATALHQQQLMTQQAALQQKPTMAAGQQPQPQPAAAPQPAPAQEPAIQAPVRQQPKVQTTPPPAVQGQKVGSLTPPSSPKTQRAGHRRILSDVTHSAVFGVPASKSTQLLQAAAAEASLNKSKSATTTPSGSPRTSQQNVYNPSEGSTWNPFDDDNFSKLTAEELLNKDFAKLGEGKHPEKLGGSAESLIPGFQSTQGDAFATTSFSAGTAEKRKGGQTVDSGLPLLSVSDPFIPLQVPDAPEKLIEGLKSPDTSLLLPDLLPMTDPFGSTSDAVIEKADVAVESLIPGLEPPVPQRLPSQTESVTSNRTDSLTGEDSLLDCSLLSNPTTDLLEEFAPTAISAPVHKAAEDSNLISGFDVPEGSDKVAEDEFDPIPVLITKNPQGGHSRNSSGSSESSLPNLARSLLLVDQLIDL
Chain of Cytochrome P450 2C19 (P33261 whole entry): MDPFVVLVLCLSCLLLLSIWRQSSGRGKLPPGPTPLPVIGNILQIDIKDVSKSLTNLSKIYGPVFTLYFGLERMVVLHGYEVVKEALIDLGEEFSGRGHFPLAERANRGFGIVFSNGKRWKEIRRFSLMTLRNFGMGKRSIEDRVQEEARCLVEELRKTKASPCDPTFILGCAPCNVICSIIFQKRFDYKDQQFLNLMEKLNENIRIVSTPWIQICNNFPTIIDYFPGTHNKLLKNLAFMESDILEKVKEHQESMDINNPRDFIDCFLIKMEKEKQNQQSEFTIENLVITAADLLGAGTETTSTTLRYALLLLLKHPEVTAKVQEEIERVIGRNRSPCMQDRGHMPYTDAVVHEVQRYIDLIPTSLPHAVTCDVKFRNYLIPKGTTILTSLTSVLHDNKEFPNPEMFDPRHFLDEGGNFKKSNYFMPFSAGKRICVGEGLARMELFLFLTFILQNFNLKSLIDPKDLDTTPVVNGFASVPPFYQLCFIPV
T1 sequence (P08684 whole entry): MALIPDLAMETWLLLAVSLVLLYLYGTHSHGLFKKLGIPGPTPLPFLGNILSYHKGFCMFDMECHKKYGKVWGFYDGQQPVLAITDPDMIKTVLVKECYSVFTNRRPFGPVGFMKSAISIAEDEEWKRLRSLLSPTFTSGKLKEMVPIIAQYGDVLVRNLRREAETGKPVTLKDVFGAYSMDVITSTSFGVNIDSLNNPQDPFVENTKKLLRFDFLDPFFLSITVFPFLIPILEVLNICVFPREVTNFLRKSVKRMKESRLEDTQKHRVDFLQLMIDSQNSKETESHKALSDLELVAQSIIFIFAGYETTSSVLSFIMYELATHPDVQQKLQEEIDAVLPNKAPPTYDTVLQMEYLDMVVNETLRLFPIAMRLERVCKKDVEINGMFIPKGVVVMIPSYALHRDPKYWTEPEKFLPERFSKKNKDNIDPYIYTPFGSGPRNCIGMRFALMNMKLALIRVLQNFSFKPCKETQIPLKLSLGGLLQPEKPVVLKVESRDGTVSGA

Row | IC50 [1] | IC50 (Cytochrome P450 3A4 [2]) | Vdss [3] | efflux ratio [4] | half-life [5] | CL/F [6] | Papp at 4 h [7] | Papp A→B [8] | Papp B→A [9] | half-life at 0.5 µM [10] | half-life at 0.5 µM [11] | half-life at 0.5 µM [12] | IC50 (Cytochrome P450 1A2) | IC50 (Cytochrome P450 2C19) | IC50 (Cytochrome P450 2D6) | IC50 (Cytochrome P450 3A4 [13]) | IC50 [14] | IC50 [15] | IC50 [16] | IC50 [17] | SMILES
1 | 0.5 nM | > 20000 nM | 41.3 L/kg | 0.7 | 5.02 h | 119 mL/min/kg | 40.6 ×10⁻⁶ cm/s | 23.5 ×10⁻⁶ cm/s | 15.3 ×10⁻⁶ cm/s | > 2 h | 0.293 h | 0.433 h | > 20000 nM | > 20000 nM | > 20000 nM | > 20000 nM | 7400 nM | 180 nM | 400 nM | 1600 nM | CC(C)C[C@](C)(N)COc1cnc(-c2ccnc(C(F)F)c2)cc1C(F)F
2 | 3.4 nM | > 20000 nM | 30.9 L/kg | 1 | 7.55 h | 63.6 mL/min/kg | 56.5 ×10⁻⁶ cm/s | 17.2 ×10⁻⁶ cm/s | 17.3 ×10⁻⁶ cm/s | > 2 h | 1.28 h | > 2 h | > 20000 nM | > 20000 nM | > 20000 nM | > 20000 nM | 11500 nM | 10 nM | 440 nM | 1300 nM | COC(=O)Nc1cc(-c2cnc(OC[C@@](C)(N)CC(C)C)c(C)c2)ccn1
3 | 2.4 nM | > 20000 nM | 16.3 L/kg | 1.1 | 11.3 h | 17.3 mL/min/kg | 82.4 ×10⁻⁶ cm/s | 35.7 ×10⁻⁶ cm/s | 38.4 ×10⁻⁶ cm/s | > 2 h | 0.85 h | 1.68 h | > 20000 nM | > 20000 nM | > 20000 nM | > 20000 nM | 39000 nM | 90 nM | 210 nM | 1500 nM | COC(=O)Nc1cc(-c2ccc(OC[C@@](C)(N)CC(C)C)c(C)n2)ccn1
